In US4471131A, “Novel silyl esters of N-phosphonomethylglycine” (Monsanto Company, priority 1983, dated 1984):

Columns and labels:
Experiment in all cases: post-emergence herbicidal activity, greenhouse
Format in all cases: in vivo
[1] = tested on: Large Crabgrass; conditions: Table III, 4 WAT, formulated in anhydrous tetrahydrofuran
Procedure, shortened: (§1)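 Injury scores compare treated plants with untreated control pans at roughly 2 and 4 weeks post-spray. Treatment was a single atomizer application, in a solution or suspension with about 0.4% emulsifier by weight, to greenhouse plants aged two to three weeks.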

[2] = tested on: Canada Thistle; conditions: Table II, formulated in anhydrous tetrahydrofuran
Procedure, shortened: as §1

[3] = tested on: Johnsongrass; conditions: Table II
Procedure, shortened: as §1

[4] = tested on: Wild Buckwheat; conditions: Table III
Procedure, shortened: as §1

[5] = tested on: Quackgrass; conditions: Table II
Procedure, shortened: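 Plants grown from seed or vegetative propagules in topsoil pans on a greenhouse sand bench, watered from below, were atomizer-sprayed at two to three weeks of age. The spray carried about 0.4% by weight emulsifier. Injury relative to unsprayed control pans was scored approximately two and four weeks after treatment.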

[6] = tested on: Morningglory
Procedure, shortened: as §1

[7] = tested on: Sugar Beet; conditions: Table III
Procedure, shortened: as §1

[8] = 2 WAT, 5.6 kg/h, formulated in anhydrous tetrahydrofuran
[9] = 2 WAT, 11.2 kg/h, formulated in anhydrous tetrahydrofuran
[10] = 4 WAT, 5.6 kg/h, formulated in anhydrous tetrahydrofuran
[11] = 4 WAT, 11.2 kg/h, formulated in anhydrous tetrahydrofuran
[12] = 2 WAT, 1.1 kg/h, formulated in anhydrous tetrahydrofuran
[13] = 2 WAT, .28 kg/h, formulated in anhydrous tetrahydrofuran
[14] = 4 WAT, 1.1 kg/h, formulated in anhydrous tetrahydrofuran
[15] = 4 WAT, .28 kg/h, formulated in anhydrous tetrahydrofuran

In the case of `CCOC(=O)CNCP(=O)(O)O[Si](c1ccccc1)(c1ccccc1)C(C)(C)C` [Ex. 7, Glycine, N--((([(1,1-Dimethylethyl)Diphenylsilyl]Oxy)Hydroxyphosphinyl)Methyl)-,Ethyl Ester], the “Plant Response Index (T)” value ([1]; 5.6 kg/h) is reported as 3 (75-99% inhibition), the “Plant Response Index (T)” value ([1]; .28 kg/h) is reported as 2 (50-74% inhibition) and the “Plant Response Index (A)” value ([2]; 2 WAT, 5.6 kg/h) is reported as 1 (25-49% inhibition). For the same molecule, the “Plant Response Index (A)” value ([2]; 2 WAT, 11.2 kg/h) was 1 (25-49% inhibition), the “Plant Response Index (A)” value ([2]; 4 WAT, 5.6 kg/h) was 3 (75-99% inhibition) and the “Plant Response Index (A)” value ([2]; 4 WAT, 11.2 kg/h) was 3 (75-99% inhibition). The “Plant Response Index (I)” value ([3]; 2 WAT, 5.6 kg/h) was 3 (75-99% inhibition), the “Plant Response Index (I)” value [3, 8] was 0 (0-24% inhibition) and the “Plant Response Index (I)” value ([3]; 2 WAT, 11.2 kg/h) was 4 (100% inhibition). The “Plant Response Index (I)” value [3, 9] was 0 (0-24% inhibition), the “Plant Response Index (I)” value ([3]; 4 WAT, 5.6 kg/h) was 4 (100% inhibition) and the “Plant Response Index (I)” value [3, 10] was 2 (50-74% inhibition). The “Plant Response Index (I)” value ([3]; 4 WAT, 11.2 kg/h) was 4 (100% inhibition), the “Plant Response Index (I)” value [3, 11] was 1 (25-49% inhibition) and the “Plant Response Index (Q)” value ([4]; 2 WAT, 1.1 kg/h) was 2 (50-74% inhibition). For the same molecule, the “Plant Response Index (Q)” value [4, 12] was 2 (50-74% inhibition), the “Plant Response Index (Q)” value ([4]; 2 WAT, 5.6 kg/h) was 2 (50-74% inhibition) and the “Plant Response Index (Q)” value [4, 8] was 3 (75-99% inhibition). For the same molecule, the “Plant Response Index (Q)” value ([4]; 2 WAT, .28 kg/h) was 2 (50-74% inhibition), the “Plant Response Index (Q)” value [4, 13] was 1 (25-49% inhibition) and the “Plant Response Index (Q)” value ([4]; 4 WAT, 1.1 kg/h) was 2 (50-74% inhibition). The “Plant Response Index (Q)” value [4, 14] was 2 (50-74% inhibition), the “Plant Response Index (Q)” value ([4]; 4 WAT, 5.6 kg/h) was 3 (75-99% inhibition) and the “Plant Response Index (Q)” value [4, 10] was 3 (75-99% inhibition). For the same molecule, the “Plant Response Index (Q)” value ([4]; 4 WAT, .28 kg/h) was 2 (50-74% inhibition), the “Plant Response Index (Q)” value [4, 15] was 1 (25-49% inhibition) and the “Plant Response Index (H)” value ([5]; 2 WAT, 5.6 kg/h) was 1 (25-49% inhibition). The “Plant Response Index (H)” value [5, 8] was 1 (25-49% inhibition), the “Plant Response Index (H)” value ([5]; 2 WAT, 11.2 kg/h) was 2 (50-74% inhibition) and the “Plant Response Index (H)” value [5, 9] was 1 (25-49% inhibition). For the same molecule, the “Plant Response Index (H)” value ([5]; 4 WAT, 5.6 kg/h) was 4 (100% inhibition), the “Plant Response Index (H)” value [5, 10] was 2 (50-74% inhibition) and the “Plant Response Index (H)” value ([5]; 4 WAT, 11.2 kg/h) was 3 (75-99% inhibition). For the same molecule, the “Plant Response Index (H)” value [5, 11] was 2 (50-74% inhibition), the “Plant Response Index (D)” value ([6]; Table II, 2 WAT, 5.6 kg/h) was 2 (50-74% inhibition) and the “Plant Response Index (D)” value ([6]; Table II, 2 WAT, 5.6 kg/h, formulated in anhydrous tetrahydrofuran) was 2 (50-74% inhibition). For the same molecule, the “Plant Response Index (D)” value ([6]; Table II, 2 WAT, 11.2 kg/h) was 2 (50-74% inhibition), the “Plant Response Index (D)” value ([6]; Table II, 2 WAT, 11.2 kg/h, formulated in anhydrous tetrahydrofuran) was 1 (25-49% inhibition) and the “Plant Response Index (D)” value ([6]; Table II, 4 WAT, 5.6 kg/h) was 2 (50-74% inhibition). For the same molecule, the “Plant Response Index (D)” value ([6]; Table II, 4 WAT, 5.6 kg/h, formulated in anhydrous tetrahydrofuran) was 2 (50-74% inhibition), the “Plant Response Index (D)” value ([6]; Table II, 4 WAT, 11.2 kg/h) was 2 (50-74% inhibition) and the “Plant Response Index (D)” value ([6]; Table II, 4 WAT, 11.2 kg/h, formulated in anhydrous tetrahydrofuran) was 2 (50-74% inhibition). For the same molecule, the “Plant Response Index (D)” value ([6]; Table III, 2 WAT, 1.1 kg/h) was 2 (50-74% inhibition), the “Plant Response Index (D)” value ([6]; Table III, 2 WAT, 1.1 kg/h, formulated in anhydrous tetrahydrofuran) was 2 (50-74% inhibition) and the “Plant Response Index (D)” value ([6]; Table III, 2 WAT, 5.6 kg/h) was 2 (50-74% inhibition). The “Plant Response Index (D)” value ([6]; Table III, 2 WAT, 5.6 kg/h, formulated in anhydrous tetrahydrofuran) was 2 (50-74% inhibition), the “Plant Response Index (D)” value ([6]; Table III, 2 WAT, .28 kg/h) was 2 (50-74% inhibition) and the “Plant Response Index (D)” value ([6]; Table III, 2 WAT, .28 kg/h, formulated in anhydrous tetrahydrofuran) was 1 (25-49% inhibition). The “Plant Response Index (D)” value ([6]; Table III, 4 WAT, 1.1 kg/h) was 2 (50-74% inhibition), the “Plant Response Index (D)” value ([6]; Table III, 4 WAT, 1.1 kg/h, formulated in anhydrous tetrahydrofuran) was 2 (50-74% inhibition) and the “Plant Response Index (D)” value ([6]; Table III, 4 WAT, 5.6 kg/h) was 3 (75-99% inhibition). For the same molecule, the “Plant Response Index (D)” value ([6]; Table III, 4 WAT, 5.6 kg/h, formulated in anhydrous tetrahydrofuran) was 3 (75-99% inhibition), the “Plant Response Index (D)” value ([6]; Table III, 4 WAT, .28 kg/h) was 1 (25-49% inhibition) and the “Plant Response Index (D)” value ([6]; Table III, 4 WAT, .28 kg/h, formulated in anhydrous tetrahydrofuran) was 1 (25-49% inhibition). For the same molecule, the “Plant Response Index (M)” value ([7]; 2 WAT, 1.1 kg/h) was 1 (25-49% inhibition), the “Plant Response Index (M)” value [7, 12] was 1 (25-49% inhibition) and the “Plant Response Index (M)” value ([7]; 2 WAT, 5.6 kg/h) was 1 (25-49% inhibition). The “Plant Response Index (M)” value [7, 8] was 3 (75-99% inhibition), the “Plant Response Index (M)” value ([7]; 2 WAT, .28 kg/h) was 1 (25-49% inhibition) and the “Plant Response Index (M)” value [7, 13] was 1 (25-49% inhibition). The “Plant Response Index (M)” value ([7]; 4 WAT, 1.1 kg/h) was 1 (25-49% inhibition), the “Plant Response Index (M)” value [7, 14] was 1 (25-49% inhibition) and the “Plant Response Index (M)” value ([7]; 4 WAT, 5.6 kg/h) was 2 (50-74% inhibition). For the same molecule, the “Plant Response Index (M)” value [7, 10] was 4 (100% inhibition), the “Plant Response Index (M)” value ([7]; 4 WAT, .28 kg/h) was 1 (25-49% inhibition) and the “Plant Response Index (M)” value [7, 15] was 1 (25-49% inhibition).
